The target of experiment [1] is T1, Ubiquitin carboxyl-terminal hydrolase 8 (Homo sapiens) (UniProt P40818).
T1 sequence (whole entry): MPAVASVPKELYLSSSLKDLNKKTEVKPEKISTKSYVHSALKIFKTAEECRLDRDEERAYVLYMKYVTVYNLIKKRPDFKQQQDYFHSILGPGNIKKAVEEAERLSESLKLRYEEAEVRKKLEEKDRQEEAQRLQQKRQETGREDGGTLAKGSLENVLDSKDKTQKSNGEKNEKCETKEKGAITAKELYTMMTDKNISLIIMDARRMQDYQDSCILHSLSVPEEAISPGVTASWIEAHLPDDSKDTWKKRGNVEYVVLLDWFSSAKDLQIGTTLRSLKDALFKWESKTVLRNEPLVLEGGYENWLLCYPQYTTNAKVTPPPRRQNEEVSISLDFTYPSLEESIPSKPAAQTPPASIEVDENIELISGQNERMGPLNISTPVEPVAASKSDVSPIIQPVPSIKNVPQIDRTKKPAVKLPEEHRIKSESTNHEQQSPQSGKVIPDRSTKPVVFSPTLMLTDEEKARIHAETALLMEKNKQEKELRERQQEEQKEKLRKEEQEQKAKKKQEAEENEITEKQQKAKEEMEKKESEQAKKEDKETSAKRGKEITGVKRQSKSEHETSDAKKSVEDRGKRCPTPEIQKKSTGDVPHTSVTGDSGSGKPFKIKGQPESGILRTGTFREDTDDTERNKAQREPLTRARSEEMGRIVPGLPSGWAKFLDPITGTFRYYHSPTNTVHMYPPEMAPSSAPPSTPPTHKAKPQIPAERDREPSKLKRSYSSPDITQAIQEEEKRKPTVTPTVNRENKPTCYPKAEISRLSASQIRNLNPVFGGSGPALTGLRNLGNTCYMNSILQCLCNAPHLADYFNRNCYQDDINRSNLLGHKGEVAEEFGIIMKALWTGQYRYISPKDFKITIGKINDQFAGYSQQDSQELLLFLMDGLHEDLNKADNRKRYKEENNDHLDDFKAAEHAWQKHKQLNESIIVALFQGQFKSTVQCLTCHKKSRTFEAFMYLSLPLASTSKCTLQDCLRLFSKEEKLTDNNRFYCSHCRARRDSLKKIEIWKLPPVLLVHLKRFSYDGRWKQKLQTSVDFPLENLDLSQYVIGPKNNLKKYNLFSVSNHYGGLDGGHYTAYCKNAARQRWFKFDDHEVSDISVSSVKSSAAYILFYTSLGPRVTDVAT
Nature of the experiment: Inhibition of N-terminal His-6 tagged USP8 (734 to 1110 residues) (unknown origin) expressed in Escherichia coli BL21 (DE3) cells at 100 nM measured after 3 hrs by fluorescence based Plate reader method relative to control. The note with it: values are per cent of control.

In experiment [2] the target is T1, Ubiquitin carboxyl-terminal hydrolase 8 (Homo sapiens). The experiment can be described thus: Inhibition of N-terminal His-6 tagged USP8 (734 to 1110 residues) (unknown origin) expressed in Escherichia coli BL21 (DE3) cells at 10 nM measured after 3 hrs by fluorescence based Plate reader method relative to control. The settings on record: values are per cent of control.

The target in experiment [3] is T2, Ubiquitin thioesterase OTUB1 (Homo sapiens, UniProt Q96FW1). Nature of the experiment: Inhibition of N-terminal His-6 tagged OTUB1 (40 to 271 residues) (unknown origin) expressed in Escherichia coli BL21 (DE3) cells at 10 nM using Ub-Rho measured after 0.5 to 3 hrs by fluorescence based Plate reader method relative to control. The settings on record: time 0.5-3 hrs, values are per cent of control.

In experiment [4] the target is T2, Ubiquitin thioesterase OTUB1. Nature of the experiment: Inhibition of N-terminal His-6 tagged OTUB1 (40 to 271 residues) (unknown origin) expressed in Escherichia coli BL21 (DE3) cells at 100 nM using Ub-Rho measured after 0.5 to 3 hrs by fluorescence based Plate reader method relative to control. The note with it: time 0.5-3 hrs, values are per cent of control.

In general, residual activity refers to the activity still measured, relative to the control.

T2 sequence (Q96FW1 whole entry, the tested form may be a part): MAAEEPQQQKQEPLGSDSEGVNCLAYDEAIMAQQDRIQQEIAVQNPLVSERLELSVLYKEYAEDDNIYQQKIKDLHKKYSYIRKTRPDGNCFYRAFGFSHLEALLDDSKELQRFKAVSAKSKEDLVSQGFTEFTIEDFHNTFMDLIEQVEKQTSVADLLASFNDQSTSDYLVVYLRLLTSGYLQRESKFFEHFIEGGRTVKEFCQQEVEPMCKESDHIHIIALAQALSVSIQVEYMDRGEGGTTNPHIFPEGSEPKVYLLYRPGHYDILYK

With `O=C1c2ccccc2C(=O)c2oc(-c3ccccc3[N+](=O)[O-])nc21`, the residual activity in experiment [1] was 21.6%; in experiment [2], 51.1%; in experiment [3] it was 47.2%; in experiment [4] it was 19%.

On to `COc1cccc(-c2nc3c(o2)C(=O)c2ccccc2C3=O)c1F`, for which the residual activity in experiment [1] was 25.5%; in experiment [2], 42.6%; in experiment [3] it was 52.9%; in experiment [4] it was 22.4%.

Regarding `CN1CC[C@@H](Oc2ccc(-c3nc4c(o3)C(=O)c3ccccc3C4=O)cc2Cl)C1`, the residual activity in experiment [1] came to 31.2%; in experiment [2] it was 65.5%; in experiment [3], 69.8%; in experiment [4], 38.5%.

As for `CN1CC[C@@H](Oc2ccc(-c3nc4c(o3)C(=O)c3ccccc3C4=O)c(C(F)(F)F)c2)C1`, the residual activity is 42.5% in experiment [1], 63.2% in experiment [2], 74.7% in experiment [3] and 42.4% in experiment [4].

In the case of `O=C1c2ccccc2C(=O)c2oc(-c3ccccc3Cl)nc21`, the residual activity in experiment [1] was 20.8%; in experiment [2] it was 43.1%; in experiment [3] it was 60%; in experiment [4], 25.1%.

As to `Cc1cccc(-c2nc3c(o2)C(=O)c2ccccc2C3=O)c1`, the residual activity in experiment [1] amounted to 40.9%; in experiment [2] it was 63.6%; in experiment [3], 63.1%; in experiment [4], 49.2%.

In the case of `O=C1c2ccccc2C(=O)c2oc(-c3ccccc3F)nc21`, the residual activity in experiment [1] amounted to 19.2%; in experiment [2], 37.1%; in experiment [3], 55.5%; in experiment [4], 27.3%.

On to `CN(C)CCOc1cccc(-c2nc3c([nH]2)C(=O)c2ccccc2C3=O)c1`, for which the residual activity in experiment [1] was found to be 86.4%; in experiment [2], 88.7%; in experiment [3], 86.5%; in experiment [4], 80.4%.

As to `Cc1cccc(Cl)c1-c1nc2c(o1)C(=O)c1ccccc1C2=O`, the residual activity in experiment [1] came to 15.5%; in experiment [2] it was 40.1%; in experiment [3], 55.4%; in experiment [4], 23.5%.

`O=C1c2ccccc2C(=O)c2oc(-c3ccccc3C(F)(F)F)nc21`: the residual activity stood at 17.7% in experiment [1], 50.7% in experiment [2], 62.6% in experiment [3] and 25.8% in experiment [4].

Consider `COc1cccc(-c2nc3c(o2)C(=O)c2ccccc2C3=O)c1`, for which the residual activity in experiment [1] stood at 32.9%; in experiment [2], 52.7%; in experiment [3], 61.7%; in experiment [4], 30.9%.

With `O=C1c2ccccc2C(=O)c2oc(-c3ccc(Cl)cc3Cl)nc21`, the residual activity in experiment [1] came out at 16%; in experiment [2], 58.4%; in experiment [3], 62.4%; in experiment [4], 42.2%.

With `COc1ccccc1-c1nc2c(o1)C(=O)c1ccccc1C2=O`, the residual activity was determined as 21.4% in experiment [1], 43.9% in experiment [2], 59.2% in experiment [3] and 28.3% in experiment [4].

As to `COc1cc(-c2nc3c(o2)C(=O)c2ccccc2C3=O)ccc1Cl`, the residual activity in experiment [1] came out at 30%; in experiment [2] it was 53.6%; in experiment [3] it was 70.2%; in experiment [4] it was 40.4%.

With `COc1c(Cl)ccc(Cl)c1-c1nc2c(o1)C(=O)c1ccccc1C2=O`, the residual activity in experiment [1] stood at 35.6%; in experiment [2], 56.9%; in experiment [3] it was 69.4%; in experiment [4], 42.4%.

In the case of `O=C1c2ccccc2C(=O)c2oc(-c3cccc([N+](=O)[O-])c3)nc21`, the residual activity in experiment [1] turned out to be 29.4%; in experiment [2], 41.9%; in experiment [3], 47.8%; in experiment [4] it was 18.9%.

For the compound `O=C1c2ccccc2C(=O)c2oc(-c3ccc(F)cc3F)nc21`, the residual activity in experiment [1] worked out at 19.3%; in experiment [2] it was 34.7%; in experiment [3] it was 44.5%; in experiment [4], 19.4%.

Values taken from ChEMBL document CHEMBL5108067, “Discovery of Potent OTUB1/USP8 Dual Inhibitors Targeting Proteostasis in Non-Small-Cell Lung Cancer” (J Med Chem, 2022).
